In PubChem BioAssay AID1419 (Emory University Molecular Libraries Screening Center, 2008):
The source made the active and inactive calls. How the calls were made is not given here.

Test: EBV protein-peptide binding inhibitors, dose response, biochemical, fluorescence polarization (AID 1419)
Details: cell-free protein-peptide binding, 2 h; for fold change: measured here: P channel fold over control, at 54 µM

With `COC(=O)c1cc(C(=O)c2ccc(Cl)cc2)n2c(=O)/c(=C\N(C)C)sc12` the IC50 was 51.9 µM (inactive) and the fold change was 1.56.

For `COc1ccc(/C=C2\CCCc3c2nc2ccccc2c3C(=O)O)cc1OC`, the IC50 was < 0.42 µM and the fold change was 20.3.

For `CCCOc1cc(N(CC)CC)ccc1/C=C(/C#N)c1nc2ccc(C)cc2[nH]1`, the IC50 was 11.8 µM and the fold change was 12.9.

`Cc1cc(C)c2cc3c(ccn3C3OC[C@H](O)[C@H](O)[C@H]3O)cc2n1` (stereo partly specified) showed an IC50 of 3.78 µM and a fold change of 2.96.

With `O=C(O)c1ccc2c3c(ncnc13)-c1ccccc1C2=O` the IC50 was > 54 µM (inactive) and the fold change was 1.83.

For `Cc1nn(C)c(C)c1CN(C)C(=O)C1c2ccccc2Oc2ccccc21`, the IC50 was 3.77 µM and the fold change was 4.27.

`CC(C)Oc1ccc(-c2nn(-c3ccccc3)cc2/C=c2\sc3ncnn3c2=O)cc1` showed an IC50 of 1.43 µM and a fold change of 14.3.

With `O=Cc1ccc2oc3nc4n(c(=O)c3c(=O)c2c1)CCCS4` the IC50 was > 54 µM (inactive) and the fold change was 1.03.

Work on `COc1ccc(N=C2S/C(=C\c3ccc(OCC(=O)O)cc3)C(=O)N2CCc2c[nH]c3ccccc23)cc1` yielded an IC50 of 1.88 µM and a fold change of 1.05.

For `c1ccc2c(c1)CCCN2Cc1nnnn1CC1CCCO1` (stereo unspecified), the IC50 was 4.98 µM and the fold change was 2.55.

`COc1ccc(N=Nc2nc3cc(Br)c(Br)cc3n2C)c(OC)c1` gave an IC50 of 2.95 µM and a fold change of 5.37.

For `N#CC1=C(N)OC2=C(CC/C2=C\c2ccccc2)C1c1ccccc1` (stereo unspecified), the IC50 was < 0.42 µM and the fold change was 6.24.

With `O=C(CCN1C(=O)COc2ccccc21)NCc1ccco1` the IC50 was > 54 µM (inactive) and the fold change was 1.02.

Compound `COc1ccc(OC)c(/C=C2\SC(=S)N(Cc3cccnc3)C2=O)c1` has an IC50 of 6.71 µM and a fold change of 5.16.

With `N=C1CCC(=N)c2c1c(O)c1ccccc1c2O` the IC50 was < 0.42 µM and the fold change was 41.5.

For `CCN(CC)C(=O)CC(c1cc(OC)c(OC)c(OC)c1)c1c(OC)cc(OC)c2c(-c3ccccc3)cc(=O)oc12` (stereo unspecified), the IC50 was 33.8 µM (inactive) and the fold change was 1.01.

For `CCOC(=O)N1CCC(Nc2nc3ccccc3nc2NS(=O)(=O)c2ccc(Cl)cc2)CC1`, the IC50 was > 54 µM (inactive) and the fold change was 1.39.

For `CCn1c(SC(C)C(=O)O)nc2sc3c(c2c1=O)CCC3` (stereo unspecified), the IC50 was > 54 µM (inactive) and the fold change was 1.12.

In the case of `Cc1ccc(-c2cc(-c3ccco3)c(C#N)c(=O)[nH]2)cc1`, the IC50 is reported as > 54 µM (inactive) and the fold change is reported as 1.46.

For `Cn1c(=O)c(NC2CCCCC2)c2c3c(cccc31)C(=O)c1ccccc1-2`, the IC50 was 0.88 µM and the fold change was 34.7.

In the case of `CCSc1nnc(NC(=O)C(C(F)(F)F)C(F)(F)F)s1`, the IC50 is reported as > 54 µM (inactive) and the fold change is reported as 0.583.

With `CC(C)CSC1=NSC2=NC(=O)/C(=C\c3coc4ccccc4c3=O)C(=N)N12` the IC50 was > 54 µM (inactive) and the fold change was 33.

For `N#CC1=C(N)N2C(=C(C#N)C1c1ccccc1)Sc1ccccc12` (stereo unspecified), the IC50 was > 54 µM (inactive) and the fold change was 2.54.

With `Cc1ccc[n+](-c2[nH]c(=O)sc2/C=N/NC(=O)c2ccccc2[O-])c1` the IC50 was 34.2 µM (inactive) and the fold change was 1.69.

In the case of `COc1cc2c(cc1OC)-c1cc3ccc4c(c3c[n+]1CC2)OCO4`, the IC50 is reported as < 0.42 µM and the fold change is reported as 11.6.

In the case of `CCN(CC)c1ccc(/C=C/C(=O)c2ccc(Br)cc2)cc1`, the IC50 is reported as 2.64 µM and the fold change is reported as 31.1.

With `COC(=O)CCCCC1SCC(NC(=O)c2ccccc2)C1Cl` (stereo unspecified) the IC50 was 10.8 µM and the fold change was 2.16.

With `COc1ccccc1Nc1nc2ccc(C)cc2cc1C#N` the IC50 was 16.6 µM and the fold change was 2.74.

For `CN(C)c1ccc(Nc2c3c4c(cccc4n(C)c2=O)C(=O)c2ccccc2-3)cc1`, the IC50 was > 54 µM (inactive) and the fold change was 1.1.

`CSC1=NSC2=NC(=O)/C(=C/c3coc4ccccc4c3=O)C(=N)N12` gave an IC50 of 1.78 µM and a fold change of 106.

With `O=[n+]1c2c(n([O-])c3cc(F)c(N4CCCC4)cc31)CCCC2` the IC50 was < 0.42 µM and the fold change was 11.6.

`COc1cc(C2C(C#N)=C(N)OC3=C2C(=O)CC(C)(C)C3)c([N+](=O)[O-])cc1OC` (stereo unspecified) showed an IC50 of 6.61 µM and a fold change of 1.98.

Work on `O=c1oc2ccccc2cc1-c1nc(-c2cccs2)cs1` yielded an IC50 of 2.96 µM and a fold change of 25.8.

`CCOC(=O)c1c(/N=C/c2c(O)n(-c3ccccc3F)c(=S)[nH]c2=O)sc2c1CCCC2` showed an IC50 of 2.97 µM and a fold change of 29.6.

`N=C1S/C(=C\c2ccc(-c3cccc(Cl)c3)o2)C(=O)N1c1nccs1` showed an IC50 of 5.78 µM and a fold change of 2.

In the case of `O=C(NNC(=O)c1sccc1-n1cccc1)c1cccc(Cl)c1`, the IC50 is reported as > 54 µM (inactive) and the fold change is reported as 0.963.

With `Cn1c(-c2ccc(C=O)s2)nc2c3ccccc3c3ccccc3c21` the IC50 was 4.07 µM and the fold change was 14.6.

Compound `CCOC(=O)/C(C#N)=C/c1cc2ccccc2nc1N1CCCCC1` has an IC50 of 27.1 µM and a fold change of 2.2.

Compound `COc1ccc(N=C2NC(=O)S/C2=C\c2ccc(N(C)C)cc2)cc1` has an IC50 of 4.75 µM and a fold change of 3.03.

In the case of `N#Cc1c2nc3ccccc3nc2n2cc(NC(=O)c3ccc(F)cc3)ccc12`, the IC50 is reported as 4.15 µM and the fold change is reported as 0.583.

For `C=CCn1c(O)c(N=NC(=O)CNC(=O)/C=C/c2ccco2)c2ccccc21`, the IC50 was > 54 µM (inactive) and the fold change was 0.747.

`COc1ccc(C2CC(c3cccs3)=NN2c2ccc(C=O)cc2)cc1` (stereo unspecified) gave an IC50 of 16.2 µM and a fold change of 15.4.

In the case of `O=C(N/N=C/c1cc(Cl)cc(Cl)c1O)c1ccncc1`, the IC50 is reported as 1.81 µM and the fold change is reported as 5.72.

With `Nc1cccc(C(=O)OCC(=O)Nc2cccc3c2C(=O)c2ccccc2C3=O)c1` the IC50 was 1.81 µM and the fold change was 2.03.

Work on `CSc1nc(SCC(=O)O)c2sc3nc(-c4ccccc4)c4c(c3c2n1)CCC4` yielded an IC50 of 3.47 µM and a fold change of 1.08.

Compound `CC(C)[C@H]1C(=O)N2CCC[C@H]2[C@]2(O)O[C@](NC(=O)[C@@H]3C=C4c5cccc6[nH]cc(c56)C[C@H]4N(C)C3)(C(C)C)C(=O)N12` has an IC50 of 3.64 µM and a fold change of 5.11.

In the case of `COc1cc(C2C=C(c3cccs3)Nc3ncnn32)cc(OC)c1OC` (stereo unspecified), the IC50 is reported as < 0.42 µM and the fold change is reported as 13.5.

Compound `Cc1ccc(C)c(S(=O)(=O)C(C#N)c2nc3ccccc3nc2N2CCCC2)c1` (stereo unspecified) has an IC50 of 4.06 µM and a fold change of 1.67.

Compound `CC(=O)n1c(C=Nc2ccc(Cl)cc2)c(O)c2ccccc21` has an IC50 of 1.09 µM and a fold change of 31.8.

`Cc1ccc([N+](=O)[O-])cc1N=Nc1c(-c2ccc([N+](=O)[O-])cc2)[nH]n(C(N)=S)c1=O` showed an IC50 of 1.83 µM and a fold change of 1.04.

With `Cc1ccc(S(=O)(=O)C(C#N)c2nc3ccccc3nc2N2CCCC2)cc1` (stereo unspecified) the IC50 was > 54 µM (inactive) and the fold change was 1.67.

Work on `Cc1cc(/C=C2\SC(=S)N(Cc3ccco3)C2=O)c(C)n1-c1cccnc1` yielded an IC50 of 8.64 µM and a fold change of 18.3.

`CC(=O)Nc1cccc(C2=CC(c3ccco3)n3ncnc3N2)c1` (stereo unspecified) gave an IC50 of 1.48 µM and a fold change of 20.3.

`O=C1C(Br)=Cc2cccc3cccc1c23` showed an IC50 of 2 µM and a fold change of 7.55.

`Cn1c(=O)[nH]c2cc(Cl)cnc21` gave an IC50 of 7.23 µM and a fold change of 2.34.

With `O=C(Nc1ccncc1)Nc1ccc(F)cc1F` the IC50 was > 54 µM (inactive) and the fold change was 1.04.

In the case of `Cn1c(=O)c(Nc2ccc(O)cc2)c2c3c(cccc31)C(=O)c1ccccc1-2`, the IC50 is reported as < 0.42 µM and the fold change is reported as 3.86.

For `CCOC(=O)c1cc(-c2ccc(/C=C3/C(=O)NC(=O)C(C#N)=C3C)o2)ccc1Cl`, the IC50 was < 0.42 µM and the fold change was 2.14.

`COC(=O)[C@@]1(C#N)[C@@H]2C=CC(C(C)=O)=CN2[C@@H](C(N)=O)[C@@H]1c1ccc(F)cc1` gave an IC50 of 1.05 µM and a fold change of 10.2.

For `CC1CCc2c(sc3nc(CN4CCOCC4)nc(NS(=O)(=O)c4cccc([N+](=O)[O-])c4)c23)C1` (stereo unspecified), the IC50 was > 54 µM (inactive) and the fold change was 1.13.

Compound `NS(=O)(=O)c1ccc(N/N=C/c2ccc(O)c(O)c2O)c([N+](=O)[O-])c1` has an IC50 of 3.19 µM and a fold change of 1.05.

`CCOc1cc(/C=C(\C#N)c2nc(-c3cccs3)c(NC(C)=O)s2)ccc1O` gave an IC50 of 3.62 µM and a fold change of 5.84.

`COc1cc(/C=C2\SC(=O)N(Cc3ccc(Cl)cc3)C2=O)cc([N+](=O)[O-])c1O` showed an IC50 of 24.9 µM and a fold change of 1.04.

For `Cc1ccc(C(=O)Nn2c(O)c(C=C3N=c4ccccc4=N3)sc2=S)cc1`, the IC50 was > 54 µM (inactive) and the fold change was 1.04.

`CCN(CC)c1ccc(/C=c2\sc3nnc(-c4ccccc4Cl)n3c2=O)cc1` showed an IC50 of 2.65 µM and a fold change of 16.1.

For `Nc1nnc(-c2cc3c(ccc4ccccc43)oc2=O)s1`, the IC50 was < 0.42 µM and the fold change was 2.34.

For `COC(=O)c1cc(N2CCN(C)CC2)nc2ccccc12`, the IC50 was 32.8 µM (inactive) and the fold change was 1.52.

For `CCOc1ccc(-c2c(C#N)c(N)nc3sc(C(=O)c4ccccc4)c(N)c23)cc1`, the IC50 was > 54 µM (inactive) and the fold change was 4.62.

In the case of `COC(=O)c1cc2n3ccccc3c(C)c(-c3ccccc3)c-2c1C(=O)OC`, the IC50 is reported as 2.69 µM and the fold change is reported as 4.46.

With `C=CCc1cccc2cc(C(=O)Nc3ccc(S(=O)(=O)Nc4nnc(CC)s4)cc3)c(=O)oc12` the IC50 was > 54 µM (inactive) and the fold change was 1.08.

For `Nc1ccc(N)c(C(=O)O)c1`, the IC50 was 3.76 µM and the fold change was 2.6.

With `CCC1=NN2C(=N)/C(=C\c3cccn3-c3ccc(Br)cc3)C(=O)N=C2S1` the IC50 was > 54 µM (inactive) and the fold change was 1.04.

With `O=C(Nc1cccc([N+](=O)[O-])c1)c1cnccn1` the IC50 was > 54 µM (inactive) and the fold change was 1.09.
